Structures are written as SMILES. Read-outs that look alike come from different tables or passages of the source. Some results are limits rather than exact numbers.

What is called solubility is the concentration that dissolves in the medium under given conditions.

The nature of series [1]: ADME solubility determination at pH 2.0 and pH 7.4. Format: physicochemical. The conditions noted are these: aqueous buffer, thermodynamic from solid, LC-MS/MS. The procedure, abridged: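 Dried residues of 10 mM DMSO stocks were shaken in PBS pH 7.4 or pH 2.0 for 24 hours at 25° C. and 1,100 rpm. After centrifugation, supernatants were quantified by LC-MS/MS against a standard of known concentration, applying a dilution factor.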

Series [2] can be described thus: Liver microsomal stability, human liver microsomes. To be noted: 1 μM compound, NADPH, read-out: t1/2 (min) in HLM. Format: in vitro ADME. The procedure, abridged: (§1)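 Compound (1 μM final) was incubated with prewarmed human or rat liver microsomes (1 mg/mL in 100 mM phosphate master mix) plus NADPH; aliquots at 0.5–30 minutes were quenched in cold acetonitrile and quantified by LC-MS/MS. Half-life came from the ln(% remaining) versus time slope, converted to CLint (μL/min/mg prot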
In general terms: Liver microsomes are vesicles of endoplasmic reticulum, rich in cytochrome P450 enzymes.

Series [3] in a line: Liver microsomal stability, rat liver microsomes. Format: in vitro ADME. The conditions noted are these: 1 μM compound, NADPH, read-out: t1/2 (min) in RLM. The procedure, abridged: as §1
The mark [4] stands for this setting: PBS pH 2.0, shaken at 25° C. for 24 hours, read-out: Solubility at pH 2.0.
[5] abbreviates: PBS pH 7.4, shaken at 25° C. for 24 hours, read-out: Solubility at pH 7.4.

As to `COc1ncnc(C2CC2)c1-c1ncc2cnn(Cc3ccc(-c4nc(C(F)(F)F)cn4C(C)CF)cc3)c2n1` (centres unmarked) [Example 151, 6-(4-cyclopropyl-6-methoxypyrimidin-5-yl)-1-(4-(1-(1-fluoropropan-2-yl)-4-(trifluoromethyl)-1H-imidazol-2-yl)benzyl)-1H-pyrazolo[3,4-d]pyrimidine], the solubility at 24 h in series [1] (setting [4]) and in series [1] (setting [5]) was more than 10 µM each time. For the same molecule, the half-life at 1 μM in series [2] and in series [3] was more than 25 min each time.

Regarding `CC(C)c1ccccc1-c1ncc2cnn(Cc3ccc(-c4nc(C(F)(F)F)cn4C4CN(C)C4)cc3)c2n1` [Example 152, 6-(2-Isopropylphenyl)-1-(4-(1-(1-methylazetidin-3-yl)-4-(trifluoromethyl)-1H-imidazol-2-yl)benzyl)-1H-pyrazolo[3,4-d]pyrimidine], the solubility at 24 h in series [1] (setting [4]) and in series [1] (setting [5]) was more than 10 µM each time. Further, the half-life at 1 μM in series [2] and in series [3] was less than 25 min throughout.

Turning to `COc1ncnc(C2CC2)c1-c1ncc2cnn(Cc3ccc(-c4nc(C(F)(F)F)cn4C4CN(C)C4)cc3)c2n1` [Example 153], the solubility at 24 h is more than 10 µM in series [1] (phosphate buffered saline, PBS pH 2.0, shaken at 25° C. for 24 hours, read-out: Solubility at pH 2.0) and more than 10 µM in series [1] (phosphate buffered saline, PBS pH 7.4, shaken at 25° C. for 24 hours, read-out: Solubility at pH 7.4). Also, the half-life at 1 μM in series [2] and in series [3] was less than 25 min throughout.

For the molecule `COc1ncnc(C2CC2)c1-c1ncc2cnn(Cc3ccc(-c4nc(C(F)(F)F)cn4C4CC4)cc3)c2n1` [Example 154, 1-(4-(1-Cyclopropyl-4-(trifluoromethyl)-1H-imidazol-2-yl)benzyl)-6-(4-cyclopropyl-6-methoxypyrimidin-5-yl)-1H-pyrazolo[3,4-d]pyrimidine], the solubility at 24 h in series [1] (setting [4]) and in series [1] (setting [5]) was less than 10 µM each time. For the same molecule, the half-life at 1 μM in series [2] and in series [3] was more than 25 min each time.

As to `Cn1cc(C(F)(F)F)nc1-c1ccc(Cn2ncc3cnc(-c4c(OS(=O)(=O)C(F)(F)F)ncnc4C4CC4)nc32)cc1` [Example 160, 6-Cyclopropyl-5-(1-(4-(1-methyl-4-(trifluoromethyl)-1H-imidazol-2-yl)benzyl)-1H-pyrazolo[3,4-d]pyrimidin-6-yl)pyrimidin-4-yl trifluoromethanesulfonate], the solubility at 24 h in series [1] (setting [4]) and in series [1] (setting [5]) was less than 10 µM throughout. The half-life at 1 μM in series [2] and in series [3] was more than 25 min in each case.

Take `COc1ncnc(C2CC2)c1-c1ncc2cnn(Cc3ccc(-c4nc(C(F)(F)F)c(Br)n4C(C)C)cc3)c2n1` [Example 162]: the solubility at 24 h in series [1] (setting [4]) and in series [1] (setting [5]) was less than 10 µM each time. Moreover, the half-life at 1 μM in series [2] and in series [3] was more than 25 min in each case.

Consider `COc1ncnc(C2CC2)c1-c1ncc2cnn(Cc3ccc(-c4nc(C(F)(F)F)c(Br)n4C)cc3)c2n1` [Example 163], for which the solubility at 24 h in series [1] (setting [4]) and in series [1] (setting [5]) was less than 10 µM each time. For the same molecule, the half-life at 1 μM in series [2] and in series [3] was more than 25 min each time.

Consider `CCn1c(-c2ccc(Cn3ncc4cnc(-c5c(OC)ncnc5C5CC5)nc43)cc2)nc(C(F)(F)F)c1OC` [Example 164, 6-(4-cyclopropyl-6-methoxypyrimidin-5-yl)-1-(4-(1-ethyl-5-methoxy-4-(trifluoromethyl)-1H-imidazol-2-yl)benzyl)-1H-pyrazolo[3,4-d]pyrimidine], for which the figures for the solubility at 24 h in series [1] (setting [4]) and in series [1] (setting [5]) were more than 10 µM and less than 10 µM, respectively. The half-life at 1 μM in series [2] and in series [3] was less than 25 min each time.

`COc1ncnc(C2CC2)c1-c1ncc2cnn(Cc3ccc(-c4nc(C(F)(F)F)c(OC)n4C)cc3)c2n1` [Example 165]: the solubility at 24 h in series [1] (setting [4]) and in series [1] (setting [5]) was less than 10 µM in each case. Besides, the half-life at 1 μM in series [2] and in series [3] was more than 25 min in each case.

For `COc1ncnc(C2CC2)c1-c1ncc2cnn(Cc3ccc(-c4nc(C(F)(F)F)c(OC)n4C(C)C)cc3)c2n1` [Example 166], the solubility at 24 h in series [1] (setting [4]) and in series [1] (setting [5]) was less than 10 µM throughout. Also, the half-life at 1 μM in series [2] and in series [3] was less than 25 min throughout.

On to `CCn1c(-c2ccc(Cn3ncc4cnc(-c5c(OC)ncnc5C5CC5)nc43)cc2)nc(C(F)(F)F)c1C` [Example 167, 6-(4-cyclopropyl-6-methoxypyrimidin-5-yl)-1-(4-(1-ethyl-5-methyl-4-(trifluoromethyl)-1H-imidazol-2-yl)benzyl)-1H-pyrazolo[3,4-d]pyrimidine], for which the solubility at 24 h was more than 10 µM in series [1] (setting [4]) and less than 10 µM in series [1] (setting [5]). Further, the half-life at 1 μM in series [2] and in series [3] was less than 25 min each time.

For `COc1ncnc(C2CC2)c1-c1ncc2cnn([C@@H](C)c3ccc(-c4nc(C(F)(F)F)cn4CCF)cc3)c2n1` [Example 169], the solubility at 24 h in series [1] (setting [4]) was more than 10 µM; in series [1] (setting [5]), less than 10 µM. For the same molecule, the half-life at 1 μM in series [2] and in series [3] was more than 25 min throughout.

In the case of `CCn1cc(C(F)(F)F)nc1-c1ccc(Cn2nc(Br)c3cnc(-c4c(OC)ncnc4C4CC4)nc32)cc1` [Example 170, 3-bromo-6-(4-cyclopropyl-6-methoxypyrimidin-5-yl)-1-(4-(1-ethyl-4-(trifluoromethyl)-1H-imidazol-2-yl)benzyl)-1H-pyrazolo[3,4-d]pyrimidine], the solubility at 24 h in series [1] (setting [4]) and in series [1] (setting [5]) was less than 10 µM throughout. The half-life at 1 μM is more than 25 min in series [2] and less than 25 min in series [3].

`CCn1cc(C(F)(F)F)nc1-c1ccc(Cn2nc(C#N)c3cnc(-c4c(OC)ncnc4C4CC4)nc32)cc1` [Example 172, 6-(4-cyclopropyl-6-methoxypyrimidin-5-yl)-1-(4-(1-ethyl-4-(trifluoromethyl)-1H-imidazol-2-yl)benzyl)-1H-pyrazolo[3,4-d]pyrimidine-3-carbonitrile]: the solubility at 24 h in series [1] (setting [4]) and in series [1] (setting [5]) was less than 10 µM each time. For the same molecule, the half-life at 1 μM in series [2] is more than 25 min; in series [3] it was less than 25 min.

In the case of `COc1ncnc(C2CC2)c1-c1ncc2cnn([C@H]3CCc4cc(-c5nc(C(F)(F)F)cn5C(C)C)ccc43)c2n1` [Example 173, (S)-6-(4-cyclopropyl-6-methoxypyrimidin-5-yl)-1-(5-(1-isopropyl-4-(trifluoromethyl)-1H-imidazol-2-yl)-2,3-dihydro-1H-inden-1-yl)-1H-pyrazolo[3,4-d]pyrimidine], the solubility at 24 h in series [1] (setting [4]) and in series [1] (setting [5]) was less than 10 µM in each case. Also, the half-life at 1 μM in series [2] and in series [3] was more than 25 min each time.

On to `COc1ncnc(C2CC2)c1-c1ncc2cnn([C@@H]3CCc4cc(-c5nc(C(F)(F)F)cn5C(C)C)ccc43)c2n1` [Example 174], for which the solubility at 24 h in series [1] (setting [4]) and in series [1] (setting [5]) was less than 10 µM each time. Further, the half-life at 1 μM in series [2] and in series [3] was more than 25 min in each case.

Regarding `CCn1cc(C(F)(F)F)nc1-c1ccc(Cn2nc(OC)c3cnc(-c4c(OC)ncnc4C4CC4)nc32)cc1F` [Example 175, 6-(4-cyclopropyl-6-methoxypyrimidin-5-yl)-1-(4-(1-ethyl-4-(trifluoromethyl)-1H-imidazol-2-yl)-3-fluorobenzyl)-3-methoxy-1H-pyrazolo[3,4-d]pyrimidine], the solubility at 24 h in series [1] (setting [4]) and in series [1] (setting [5]) was less than 10 µM each time. The half-life at 1 μM in series [2] and in series [3] was more than 25 min in each case.
